Test results published in patent US6174921A, “Antitumor compositions and methods of treatment” (priority 1999, dated 2001).
In brackets after ≈: the same amount, converted by molar mass.

Legend:
CCRF-CEM cells = experiment: In vitro growth inhibition / cytotoxicity against CCRF-CEM human leukemia cells; format: cell-based; conditions: 72 hours of incubation, read-out: IC50 (concentration required for 50% inhibition of growth)
Method: The in vitro data were obtained using CCRF-CEM cells, a human leukemia cell line. Foley et al., Cancer, 18:522 (1965). These cells were grown using standard techniques. See, e.g., G. B. Grindey, et al., Journal of Molecular Pharmacoloy, 16:601 (1979). Dose-response curves were generated for various compounds to determine the concentration required for 50% inhibition of growth (IC50). Cluster plates were prepared in duplicate with the compound at various concentrations. Test compounds were dissolved initially in DMSO at a concentration of 4 mg/ml and further diluted with solvent to the desired concentration. Cells in Roswell Park Memorial Institute 1640 media supplemented with 10% dialyzed fetal bovine serum, and 25 mM HEPES buffer were added to the well at a final concentration of 4.8×10^4 cells/well in a total volume of 2.0 ml. After 72 hours of incubation (95% air, 5% CO2), cell numbers were determined on a ZBI Coulter counter. Cell number for indicated controls at the end of incubation was usually (4-6)×10^5 cells/well. Cell viability was also measured by staining with 3-[4,5-dimethylthiazol-2-yl]-2,5-diphenyl-tetrazolium bromide (MTT) using standard techniques. R. I. Freshney, Culture of Animal Cells: A Manual of Basic Technique, 253-254 (2d ed. 1987).
Column 1 refers to the example number of the compound tested; Column 2 depicts the in vitro cytoxicity against CCRF-CEM cells by relating the concentration of the test compound required for 50% inhibition of growth (IC50) of the cells in the well.

6C3HED lymphosarcoma = experiment: In vivo antitumor activity in C3H mice bearing 6C3HED lymphosarcoma allograft (Gardner lymphosarcoma), oral
Description: A second tumor model employed C3H mice bearing the widely used allograft 6C3HED lymphosarcoma, also known as the Gardner lymphosarcoma (GLS). The 6C3HED lymphosarcoma was obtained from the Division of Cancer Treatment, National Cancer Institute, Tumor Bank, maintained at E. G. and G. Mason Research (Worcester, Mass.).
First passage tumors were stored in liquid nitrogen, using standard techniques. The transplanted tumor was reestablished from the Tumor Bank every six months or as needed. The tumor was maintained by serial passage twice weekly in the host mice.
In the procedures utilized here, the tumor was removed from passage animals and minced into 1- to 3-mm cubic fragments using sterile techniques. Tumor pieces were checked for sterility using both Antibiotic Medium 1 and Brain Heart Infusion (Difco, Detroit, Mich.). The xenograft tumor pieces were implanted into the recipient CD1 Nu/Nu mice subcutaneously in an axillary site by trochar. The allograft 6C3HED tumor pieces were implanted into the recipient C3H mice in an analogous fashion.
Drug therapy on the appropriate schedule was initiated seven days after tumor implantation for the HXGC3 xenograft and the day after tumor implantation for the 6C3HED allograft. The compound being tested was mixed with 2.5% Emulphor EL620 from GAF Corporation (1:40 dilution in 0.9% saline). The total dosage volume for each administration was 0.5 ml. All animals were weighed at the beginning and end of administration of the subject compounds. Food and water were provided ad libitum.
Each control group and each dosage level of the treated groups consisted of 9 or 10 mice selected at random from the pool of implanted animals. The formulations were administered orally by gavage with the use of an 18-gauge needle. Compounds were dosed daily for 10 days for the studies using the human tumor xenografts and 8 days for the studies using the allograft.
The xenograft tumor was measured five days after treatment ended with two dimensional measurements (width and length) of the tumor taken using digital electronic calipers interfaced to a microcomputer. J. F. Worzalla, et al., Investigational New Drugs, 8:241-251 (1990). The allograft was measured in a like manner the day after the dosing schedule ended. Tumor weights were calculated from these measurements using the following formula: [formula]
At least one control group of an equal number of mice was treated with the same volume of 2.5% Emulphor only. The percent inhibition is determined by subtracting the ratio of the mean tumor size of the test group relative to the control group from one and multiplying the result by 100.
The results of several experiments in mice bearing the HXGC3 human colon adenocarcinoma and the 6C3HED lymphosarcoma when the Formula I compounds were administered orally are provided in Table II. In the table, Column 1 refers to the example number of the compound tested; Column 2 describes the particular human tumor xenograft or mouse allograft being studied; Column 3 gives the dosage level of the compound of Formula I in milligrams per kilogram of body weight; Column 4 describes the percent inhibition of tumor growth; and Column 5 tallies the number of mice which died during the course of the experiment relative to the total number of animals in the group.

[1] = test system: HXGC3 human colon adenocarcinoma xenograft; experiment: In vivo antitumor activity in CD1 Nu/Nu mice bearing HXGC3 human colon adenocarcinoma xenograft, oral; conditions: daily for 10 days
Method: One of the tumor models used for showing the anti-neoplastic activity of the sulfonylureas of this invention was the human colon xenograft HXGC3. […] This tumor was obtained from St. Jude's Children's Research Hospital and has been widely used as a human tumor model.
The xenograft tumor was measured five days after treatment ended with two dimensional measurements (width and length) of the tumor taken using digital electronic calipers interfaced to a microcomputer. […] Tumor weights were calculated from these measurements using the following formula: [formula]

[2] = 6C3HED, 1200 mg/kg, oral, daily for 8 days, second entry of Example 1

SMILES: C=Cc1ccc(S(=O)(=O)NC(=O)Nc2ccc(Cl)cc2)cc1 [Example 1, N-[[(4-chlorophenyl)amino]carbonyl]-4-(ethenyl)benzenesulfonamide]
- IC50 (CCRF-CEM cells): 19.8 µg/mL (≈ 58.8 µM)
- Toxic/Total (mice which died / total in group) (6C3HED lymphosarcoma; 6C3HED, 37.5 mg/kg, oral, daily for 8 days, second entry of Example 1): 0/10
- Toxic/Total (mice which died / total in group) (6C3HED lymphosarcoma; 6C3HED, 75 mg/kg, oral, daily for 8 days, second entry of Example 1): 0/10
- Toxic/Total (mice which died / total in group) (6C3HED lymphosarcoma; 6C3HED, 150 mg/kg, oral, daily for 8 days, first entry of Example 1): 0/10
- Toxic/Total (mice which died / total in group) (6C3HED lymphosarcoma; 6C3HED, 150 mg/kg, oral, daily for 8 days, second entry of Example 1): 0/10
- Toxic/Total (mice which died / total in group) (6C3HED lymphosarcoma; 6C3HED, 300 mg/kg, oral, daily for 8 days, first entry of Example 1): 1/10
- Toxic/Total (mice which died / total in group) (6C3HED lymphosarcoma; 6C3HED, 300 mg/kg, oral, daily for 8 days, second entry of Example 1): 1/10
- Toxic/Total (mice which died / total in group) (6C3HED lymphosarcoma; 6C3HED, 600 mg/kg, oral, daily for 8 days, second entry of Example 1): 2/10
- Percent Inhibition of tumor growth (6C3HED lymphosarcoma; [2]): Toxic
- Toxic/Total (mice which died / total in group) (6C3HED lymphosarcoma; [2]): 10/10
- Percent Inhibition of tumor growth (6C3HED lymphosarcoma; po, 37.5 mg/kg, 192 h): 34%
- Percent Inhibition of tumor growth (6C3HED lymphosarcoma; po, 75 mg/kg, 192 h): 66%
- Percent Inhibition of tumor growth (6C3HED lymphosarcoma; po, 600 mg/kg, 192 h): 100%

SMILES: C=Cc1ccc(S(=O)(=O)NC(=O)Nc2ccc(Cl)c(Cl)c2)cc1 [Example 2, N-[[(3,4-dichlorophenyl)amino]carbonyl]-4-(ethenyl)benzenesulfonamide]
- IC50 (CCRF-CEM cells): 9.3 µg/mL (≈ 25.1 µM)
- Percent Inhibition of tumor growth ([1]; 150 mg/kg): 93%
- Toxic/Total (mice which died / total in group) ([1]; 150 mg/kg): 0/7
- Percent Inhibition of tumor growth ([1]; 300 mg/kg): 97%
- Toxic/Total (mice which died / total in group) ([1]; 300 mg/kg): 1/7

SMILES: C=Cc1cccc(S(=O)(=O)NC(=O)Nc2ccc(Cl)cc2)c1 [Example 3, N-[[(4-chlorophenyl)amino]carbonyl]-3-(ethenyl)benzenesulfonamide]
- IC50 (CCRF-CEM cells): 14.4 µg/mL (≈ 42.8 µM)
- Toxic/Total (mice which died / total in group) (6C3HED lymphosarcoma; 6C3HED, 150 mg/kg, oral, daily for 8 days, entry of Example 3): 0/10
- Toxic/Total (mice which died / total in group) (6C3HED lymphosarcoma; 6C3HED, 300 mg/kg, oral, daily for 8 days, entry of Example 3): 0/10
- Percent Inhibition of tumor growth (6C3HED lymphosarcoma; po, 150 mg/kg, 192 h): 60%
- Percent Inhibition of tumor growth (6C3HED lymphosarcoma; po, 300 mg/kg, 192 h): 83%
